Molecular target: T1, Human thrombin (Homo sapiens, UniProt P00734)
T1 construct: purchased Haematologic Technologies Inc
Experiment: Inhibition of the protease activity of thrombin (chromogenic substrate S-2238)
Assay type: biochemical
Conditions: inhibition of the protease activity of thrombin

Row | SMILES | IC50 [nM]
1 | O=C(c1ccc2ccccc2c1)n1nc(-c2ccccn2)nc1NCc1ccccc1 [Cmpd 271, N-benzyl-1-[(naphthalen-2-yl)carbonyl]-3-(pyridin-2-yl)-1H-1,2,4-triazol-5-amine] | 100 to 1000
2 | O=C(c1ccc2ccccc2c1)n1nc(-c2ccccn2)cc1NCc1ccccc1 [Cmpd 272, N-benzyl-1-[(naphthalen-2-yl)carbonyl]-3-(pyridin-2-yl)-1H-pyrazol-5-amine] | > 1000
3 | CN(C)c1ccccc1C(=O)n1nc(-c2ccccn2)nc1NCc1ccccc1 [Cmpd 273, N-benzyl-1-[2-(dimethylamino)phenyl]carbonyl-3-(pyridin-2-yl)-1H-1,2,4-triazol-5-amine] | > 1000
4 | CC(C)c1ccccc1C(=O)n1nc(-c2ccccn2)nc1NCc1ccccc1 [Cmpd 275, N-benzyl-1-[2-(propan-2-yl)phenyl]carbonyl-3-(pyridin-2-yl)-1H-1,2,4-triazol-5-amine] | > 1000
5 | c1ccc(CNc2nc(-c3ccco3)n[nH]2)cc1 [Cmpd 281, N-benzyl-3-(furan-2-yl)-1H-1,2,4-triazol-5-amine] | > 1000
6 | O=C(c1cccs1)n1nc(-c2ccccn2)nc1NCc1ccccc1 [Cmpd 282, N-benzyl-3-(pyridin-2-yl)-1-[(thiophen-2-yl)carbonyl]-1H-1,2,4-triazol-5-amine] | < 100
7 | O=C(c1ccsc1)n1nc(-c2ccccn2)nc1NCc1ccccc1 [Cmpd 283, N-benzyl-3-(pyridin-2-yl)-1-[(thiophen-3-yl)carbonyl]-1H-1,2,4-triazol-5-amine] | < 100
8 | O=C(c1ccsc1)n1nc(-c2ccccn2)cc1NCc1ccccc1 [Cmpd 284, N-benzyl-3-(pyridin-2-yl)-1-[(thiophen-3-yl)carbonyl]-1H-pyrazol-5-amine] | < 100
9 | O=C(c1ccccc1OC(F)(F)F)n1nc(-c2ccccn2)nc1NCc1ccccc1 [Cmpd 285, N-benzyl-3-(pyridin-2-yl)-1-[2-(trifluoromethoxy)phenyl]carbonyl-1H-1,2,4-triazol-5-amine] | < 100
10 | O=C(c1ccccc1C(F)(F)F)n1nc(-c2ccccn2)nc1NCc1ccccc1 [Cmpd 286, N-benzyl-3-(pyridin-2-yl)-1-[2-(trifluoromethyl)phenyl]carbonyl-1H-1,2,4-triazol-5-amine] | > 1000
11 | c1ccc(CNc2nc(-c3cccnc3)n[nH]2)cc1 [Cmpd 287, N-benzyl-3-(pyridin-3-yl)-1H-1,2,4-triazol-5-amine] | > 1000
12 | O=C(c1cccs1)n1nc(-c2ccncc2)nc1NCc1ccccc1 [Cmpd 288, N-benzyl-3-(pyridin-4-yl)-1-[(thiophen-2-yl)carbonyl]-1H-1,2,4-triazol-5-amine] | < 100

Other lines, results leading:

Row | IC50 [nM] | SMILES
13 | > 1000 | O=C(c1cccc2ccccc12)n1nc(-c2ccccn2)cc1NCc1ccccc1 [Cmpd 270, N-benzyl-1-[(naphthalen-1-yl)carbonyl]-3-(pyridin-2-yl)-1H-pyrazol-5-amine]
14 | > 1000 | CC(C)c1ccccc1C(=O)n1nc(-c2ccccn2)cc1NCc1ccccc1 [Cmpd 276, N-benzyl-1-[2-(propan-2-yl)phenyl]carbonyl-3-(pyridin-2-yl)-1H-pyrazol-5-amine]
15 | 100 to 1000 | O=C(c1ccccc1F)n1nc(-c2ccccc2F)cc1NCc1ccccc1 [Cmpd 277, N-benzyl-3-(2-fluorophenyl)-1-[(2-fluorophenyl)carbonyl]-1H-pyrazol-5-amine]
16 | > 1000 | COc1ccccc1C(=O)n1nc(-c2ccccc2F)cc1NCc1ccccc1 [Cmpd 278, N-benzyl-3-(2-fluorophenyl)-1-[(2-methoxyphenyl)carbonyl]-1H-pyrazol-5-amine]
17 | > 1000 | O=C(c1ccsc1)n1nc(-c2ccccc2F)cc1NCc1ccccc1 [Cmpd 279, N-benzyl-3-(2-fluorophenyl)-1-[(thiophen-3-yl)carbonyl]-1H-pyrazol-5-amine]
18 | < 100 | COc1ccccc1C(=O)n1nc(-c2ccco2)nc1NCc1ccccc1 [Cmpd 280, N-benzyl-3-(furan-2-yl)-1-[(2-methoxyphenyl)carbonyl]-1H-1,2,4-triazol-5-amine]

Reference: patent US20170326125A1, “MULTISUBSTITUTED AROMATIC COMPOUNDS AS INHIBITORS OF THROMBIN” (VERSEON CORPORATION, priority 2016, published 2017)
